Experimental data from US6914045B2, “Glycopeptide antibiotics” (Wyeth Holdings Corporation, priority 2001, dated 2005).
In brackets after ≈: the same amount, converted by molar mass.

Experiments:
Test in all cases: in vitro antibacterial evaluation, MIC by broth dilution
Format in all cases: cell-based
Escherichia coli = details: 18 hours at 35° C.
Streptococcus sp. = details: broth dilution, 18 hours at 35° C.
Summary of the method: (§1)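 Step 1: dilute antibiotic across 64-0.06 μg/mL in Muller-Hinton II […]. Step 2: inoculate at 5×10^5 CFU/mL.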

Staphylococcus sp. = details: broth dilution, 18 hours at 35° C.
Summary of the method: as §1

Enterococcus sp. = details: broth dilution, 18 hours at 35° C.
Summary of the method: as §1

Question: What does the source list for COc1ccc(COCC2OC(OC3C(CO)OC(Oc4ccc(CC5NC(=O)C(C(C)c6ccccc6)NC(=O)CNC(=O)C(CO)NC(=O)C(C(O)C6CNC(=N)N6C6OC(CO)C(O)C(O)C6O)NC(=O)C(C(O)C6CNC(=N)N6)NC5=O)cc4)C(O)C3O)C(O)C(O)C2O)cc1 (stereo not shown) [Example 232]?
Answer: MIC Escherichia coli (ATCC 25922) (Escherichia coli): >64 µg/mL; MIC Escherichia coli (GC 4559) (Escherichia coli): 64 µg/mL (≈ 45.2 µM); MIC Escherichia coli (GC 4560) (Escherichia coli): 2 µg/mL (≈ 1.41 µM); MIC Streptococcus agalactiae (GC 4564) (Streptococcus sp.): 2 µg/mL (≈ 1.41 µM); MIC Streptococcus pneumoniae (ATCC 6301) (Streptococcus sp.): 0.5 µg/mL (≈ 0.353 µM); MIC Streptococcus pneumoniae (GC 1894) (Streptococcus sp.): 0.5 µg/mL (≈ 0.353 µM); MIC Streptococcus pneumoniae (GC 4565) (Streptococcus sp.): 1 µg/mL (≈ 0.707 µM); MIC Streptococcus pyogenes (GC 4563) (Streptococcus sp.): 2 µg/mL (≈ 1.41 µM); MIC Streptococcus pneumoniae (ATCC 6301) (Streptococcus sp.; inoculum 5×10^5 CFU/mL, strain ATCC 6301): 0.5 µg/mL (≈ 0.353 µM); MIC Streptococcus pneumoniae (GC 1894) (Streptococcus sp.; inoculum 5×10^5 CFU/mL, strain GC 1894): 0.5 µg/mL (≈ 0.353 µM); MIC Streptococcus pyogenes (GC 4563) (Streptococcus sp.; inoculum 5×10^5 CFU/mL, strain GC 4563): 2 µg/mL (≈ 1.41 µM); MIC Streptococcus agalactiae (GC 4564) (Streptococcus sp.; inoculum 5×10^5 CFU/mL, strain GC 4564): 2 µg/mL (≈ 1.41 µM); MIC Streptococcus pneumoniae (GC 4565) (Streptococcus sp.; inoculum 5×10^5 CFU/mL, strain GC 4565): 1 µg/mL (≈ 0.707 µM); MIC Coagulase Negative Staphylococcus (GC 4547) (Staphylococcus sp.): 2 µg/mL (≈ 1.41 µM); MIC Coagulase Negative Staphylococcus (GC 4548) (Staphylococcus sp.): 2 µg/mL (≈ 1.41 µM); MIC Coagulase Negative Staphylococcus (GC 4549) (Staphylococcus sp.): 1 µg/mL (≈ 0.707 µM); MIC Coagulase Negative Staphylococcus (GC 4551) (Staphylococcus sp.): 4 µg/mL (≈ 2.83 µM); MIC Coagulase Negative Staphylococcus (GC 6257) (Staphylococcus sp.): 2 µg/mL (≈ 1.41 µM); MIC Staphylococcus aureus (ATCC 29213) (Staphylococcus sp.): 4 µg/mL (≈ 2.83 µM); MIC Staphylococcus aureus (GC 1131) (Staphylococcus sp.): 4 µg/mL (≈ 2.83 µM); MIC Staphylococcus aureus (GC 3051) (Staphylococcus sp.): 4 µg/mL (≈ 2.83 µM); MIC Staphylococcus aureus (GC 3053) (Staphylococcus sp.): 8 µg/mL (≈ 5.65 µM); MIC Staphylococcus aureus (GC 4541) (Staphylococcus sp.): 4 µg/mL (≈ 2.83 µM); MIC Staphylococcus aureus (GC 4542) (Staphylococcus sp.): 4 µg/mL (≈ 2.83 µM); MIC Staphylococcus aureus (GC 4544) (Staphylococcus sp.): 4 µg/mL (≈ 2.83 µM); MIC Staphylococcus aureus (GC 4545) (Staphylococcus sp.): 4 µg/mL (≈ 2.83 µM); MIC Staphylococcus aureus-SMITH (GC 4543) (Staphylococcus sp.): 4 µg/mL (≈ 2.83 µM); MIC Staphylococcus haemolyticus (GC 4546) (Staphylococcus sp.): 2 µg/mL (≈ 1.41 µM); MIC Staphylococcus aureus (ATCC 29213) (Staphylococcus sp.; strain ATCC 29213): 4 µg/mL (≈ 2.83 µM); MIC Staphylococcus aureus (GC 1131) (Staphylococcus sp.; strain GC 1131): 4 µg/mL (≈ 2.83 µM); MIC Staphylococcus aureus (GC 3051) (Staphylococcus sp.; strain GC 3051): 4 µg/mL (≈ 2.83 µM); MIC Staphylococcus aureus (GC 3053) (Staphylococcus sp.; strain GC 3053): 8 µg/mL (≈ 5.65 µM); MIC Staphylococcus aureus (GC 4541) (Staphylococcus sp.; strain GC 4541): 4 µg/mL (≈ 2.83 µM); MIC Staphylococcus aureus (GC 4542) (Staphylococcus sp.; strain GC 4542): 4 µg/mL (≈ 2.83 µM); MIC Staphylococcus aureus-SMITH (GC 4543) (Staphylococcus sp.; strain GC 4543): 4 µg/mL (≈ 2.83 µM); MIC Staphylococcus aureus (GC 4544) (Staphylococcus sp.; strain GC 4544): 4 µg/mL (≈ 2.83 µM); MIC Staphylococcus aureus (GC 4545) (Staphylococcus sp.; strain GC 4545): 4 µg/mL (≈ 2.83 µM); MIC Staphylococcus haemolyticus (GC 4546) (Staphylococcus sp.; strain GC 4546): 2 µg/mL (≈ 1.41 µM); MIC Coagulase Negative Staphylococcus (GC 4547) (Staphylococcus sp.; strain GC 4547): 2 µg/mL (≈ 1.41 µM); MIC Coagulase Negative Staphylococcus (GC 4548) (Staphylococcus sp.; strain GC 4548): 2 µg/mL (≈ 1.41 µM); MIC Coagulase Negative Staphylococcus (GC 4549) (Staphylococcus sp.; strain GC 4549): 1 µg/mL (≈ 0.707 µM); MIC Coagulase Negative Staphylococcus (GC 4551) (Staphylococcus sp.; strain GC 4551): 4 µg/mL (≈ 2.83 µM); MIC Coagulase Negative Staphylococcus (GC 6257) (Staphylococcus sp.; strain GC 6257): 2 µg/mL (≈ 1.41 µM); MIC Enterococcus avium (GC 4558) (Enterococcus sp.): 32 µg/mL (≈ 22.6 µM); MIC Enterococcus faecalis (ATCC 29212) (Enterococcus sp.): 32 µg/mL (≈ 22.6 µM); MIC Enterococcus faecalis (GC 2242) (Enterococcus sp.): 16 µg/mL (≈ 11.3 µM); MIC Enterococcus faecalis (GC 2691) (Enterococcus sp.): 32 µg/mL (≈ 22.6 µM); MIC Enterococcus faecalis (GC 3059) (Enterococcus sp.): 32 µg/mL (≈ 22.6 µM); MIC Enterococcus faecalis (GC 4552) (Enterococcus sp.): 32 µg/mL (≈ 22.6 µM); MIC Enterococcus faecalis (GC 4553) (Enterococcus sp.): 32 µg/mL (≈ 22.6 µM); MIC Enterococcus faecalis (GC 4554) (Enterococcus sp.): 32 µg/mL (≈ 22.6 µM); MIC Enterococcus faecalis (GC 6189) (Enterococcus sp.): 64 µg/mL (≈ 45.2 µM); MIC Enterococcus faecium (GC 2243) (Enterococcus sp.): 16 µg/mL (≈ 11.3 µM); MIC Enterococcus faecium (GC 4556) (Enterococcus sp.): 32 µg/mL (≈ 22.6 µM); MIC Enterococcus faecium (GC 4557) (Enterococcus sp.): 4 µg/mL (≈ 2.83 µM); MIC Enterococcus faecalis (ATCC 29212) (Enterococcus sp.; inoculum 5×10^5 CFU/mL, strain ATCC 29212): 32 µg/mL (≈ 22.6 µM); MIC Enterococcus faecalis (GC 2242) (Enterococcus sp.; inoculum 5×10^5 CFU/mL, strain GC 2242): 16 µg/mL (≈ 11.3 µM); MIC Enterococcus faecium (GC 2243) (Enterococcus sp.; inoculum 5×10^5 CFU/mL, strain GC 2243): 16 µg/mL (≈ 11.3 µM); MIC Enterococcus faecalis (GC 2691) (Enterococcus sp.; inoculum 5×10^5 CFU/mL, strain GC 2691): 32 µg/mL (≈ 22.6 µM); MIC Enterococcus faecalis (GC 3059) (Enterococcus sp.; inoculum 5×10^5 CFU/mL, strain GC 3059): 32 µg/mL (≈ 22.6 µM); MIC Enterococcus faecalis (GC 4552) (Enterococcus sp.; inoculum 5×10^5 CFU/mL, strain GC 4552): 32 µg/mL (≈ 22.6 µM); MIC Enterococcus faecalis (GC 4553) (Enterococcus sp.; inoculum 5×10^5 CFU/mL, strain GC 4553): 32 µg/mL (≈ 22.6 µM); MIC Enterococcus faecalis (GC 4554) (Enterococcus sp.; inoculum 5×10^5 CFU/mL, strain GC 4554): 32 µg/mL (≈ 22.6 µM); MIC Enterococcus faecium (GC 4556) (Enterococcus sp.; inoculum 5×10^5 CFU/mL, strain GC 4556): 32 µg/mL (≈ 22.6 µM); MIC Enterococcus faecium (GC 4557) (Enterococcus sp.; inoculum 5×10^5 CFU/mL, strain GC 4557): 4 µg/mL (≈ 2.83 µM); MIC Enterococcus avium (GC 4558) (Enterococcus sp.; inoculum 5×10^5 CFU/mL, strain GC 4558): 32 µg/mL (≈ 22.6 µM); MIC Enterococcus faecalis (GC 6189) (Enterococcus sp.; inoculum 5×10^5 CFU/mL, strain GC 6189): 64 µg/mL (≈ 45.2 µM)
